The values that follow come from PMC6321291, “Synthesis, Biological Evaluation and Docking Studies of Benzoxazoles Derived from Thymoquinone” (Molecules, 2018).

Bounds are passed on as bounds.

The test system of data set [1] is SW620 (colorectal adenocarcinoma, metastatic). In words: MTT assay, SW620. The format is cell-based. To be noted: Homo sapiens, SW-620, 72 h. As to the method:
(§1) The tested compounds were dissolved in DMSO in five, 10-fold dilutions (0.01–100 µM). The cell lines HeLa (cervical carcinoma), SW620 (colorectal adenocarcinoma, metastatic), HepG2 (hepatocellular carcinoma), CFPAC-1 (ductal pancreatic adenocarcinoma), and WI38 (human lung fibroblast cell line), were cultured as monolayers and maintained in Dulbecco’s modified Eagle medium (DMEM) supplemented with 10% fetal bovine serum (FBS), 2 mM L-glutamine, 100 U mL^−1 penicillin and 100 μg mL^−1 streptomycin in a humidified atmosphere with 5% CO2 at 37 °C.
(§2) The MTT assay was used for evaluation of effects of tested compounds on viability of carcinoma and control cell lines. About 5000 cells per well were seeded onto a series of standard 96-well plates on day 0. Test agents were then added and incubated for further 72 h. Working dilutions of tested compounds were freshly prepared in the growth medium, on the day of testing. The solvent (DMSO) was also tested for eventual inhibitory activity by adjusting its concentration to be the same as in the working concentrations (DMSO concentration never exceeded 0.1%). After 72 h of incubation, the cell growth rate was evaluated by performing the MTT assay: experimentally determined absorbance values were transformed into a cell percentage growth (PG) using the formulas proposed by NIH and described previously. This method directly relies on control cells number at the day of assay because it compares the growth of treated cells with the growth of untreated cells in control wells on the same plate, the results are therefore a percentile difference from the calculated expected value.
(§3) If, however, all of the tested concentrations produce PGs exceeding the respective reference level of effect (e.g., PG value of 50) for a given cell line, the highest tested concentration is assigned as the default value (in the screening data report that default value is preceded by a “>” sign). Each test point was performed in quadruplicate in three individual experiments. The results were statistically analyzed (Analysis of variance (ANOVA), Tukey post-hoc test at p < 0.05). Finally, the effects of the tested substances were evaluated by plotting the mean percentage growth for each cell type in comparison to control on dose response graphs.

A short description of data set [2]: MTT assay, WI38 healthy control. To be noted: WI38 human lung fibroblast cells, WI38 healthy control human fibroblast cell line. The format is cell-based. As to the method:
as §1, §2, §3
(Tetrazolium assays rely on reduction of a dye to a coloured formazan, in cell work by metabolically active cells.)

In data set [3] the test system is CFPAC-1 (ductal pancreatic adenocarcinoma). In words: MTT assay, CFPAC-1. It is filed as cell-based. To be noted: Homo sapiens, 72 h. As to the method:
as §1, §2, §3

Data set [4] concerns phospho (Ser 473) Akt. Description: Western blot, pAkt in HeLa cells. It is filed as cell-based, human. To be noted: IC50 concentration. As to the method:
(§4) Protein lysates were lysed in the buffer 50 mM Tris HCl (pH 8), 150 mM NaCl, 1% NP-40, 0.5% sodium deoxycholate, 0.1% SDS and protease and phosphatase inhibitor cocktail (Roche, Basel, Switzerland). A total of 50 μg of proteins were resolved on 10% SDS polyacrylamide gels by use of Mini-protean cell (Bio-Rad, Hercules, CA, USA). Membranes were incubated with primary antibodies against phospho (Tyr 1135) -IGF1 Receptor β (1:1000, rabbit mAb, Cell Signalling Technology, Danvers, MA, USA), phospho (Ser 473) Akt (1:1000, rabbit mAb, Cell Signalling Technology) and α tubulin (1:1000, mouse mAb, Sigma Aldrich) at 4 °C overnight. Secondary antibody linked to anti-mouse was used at 1:1000 (Dako, Santa Clara, CA, USA) and to anti-rabbit at 1:1000 (Dako). Signals were visualized by Western Lightening Chemiluminescence Reagent Plus Kit (Perkin Elmer, USA) on the ImageQuant LAS500 (GE Healthcare, Chicago, IL, USA). Signal intensities of particular bands were normalized with the intensity of the loading control α tubulin and compared in Quantity One software (Bio-Rad). The values are expressed as average value of three independent experiments ± standard error of the mean. Statistical analysis was performed in Microsoft Excel (Microsoft Corporation, Redmond, WA, USA) by using the ANOVA (p < 0.05).
(In general: Immunoblotting shows a protein as a band on a membrane.)

Data set [5] has as its system phospho (Tyr 1135) -IGF1 Receptor β. Description: Western blot, IGF1 Receptor β activated form in HeLa cells. It is filed as cell-based, human. To be noted: IC50 concentration, 24 and 48 h treatments. The protocol: as §4
The subject of data set [6] is HeLa (cervical carcinoma). Description: MTT assay, HeLa. It is filed as cell-based. To be noted: Homo sapiens, 72 h. As to the method: as §1, §2, §3
For data set [7], the system named is HepG2 (hepatocellular carcinoma). Description: MTT assay, HepG2. To be noted: Homo sapiens, 72 h. The format is cell-based. As to the method:
as §1, §2, §3

For data set [8], the system named is phospho (Tyr 1135) -IGF1 Receptor β. In words: Western blot, IGF1 Receptor β activated form in HepG2 cells. It is filed as cell-based, human. To be noted: IC50 concentration. The protocol: as §4
Data set [9] concerns phospho (Ser 473) Akt. In words: Western blot, pAkt in HepG2 cells. The format is cell-based, human. To be noted: IC50 concentration. The protocol: as §4

Turning to `Cc1c(O)cc(C(C)C)c2oc(-c3ccc(Cl)cc3)nc12` [1e, 2-(4-Chlorophenyl)-4-methyl-7-isopropyl-1,3-benzoxazole-5-ol], the 50% inhibitory concentration (IC50) in data set [1] was found to be 79.9 µM; in [3], 49.5 µM; in data set [6], 42.7 µM; in data set [7], 39.5 µM. This compound also returned an IC50 at 72 h in data set [2] of more than 100 µM. For the same compound, the “inhibition of Akt phosphorylation (western blot)” value in data set [4] (24 h and 48 h) was “weak, time and concentration dependent inhibition”; in data set [9] (24 h and 48 h) it was “weak, time and concentration dependent inhibition”. Moreover, the “IGF1 Receptor β activated form expression (western blot)” value is recorded as “no significant changes” in data set [5]; “no significant changes” in [8] (24 and 48 h treatments).
As for `Cc1c(O)cc(C(C)C)c2oc(-c3ccc(F)cc3)nc12` [1f, 2-(4-Fluorophenyl)-4-methyl-7-isopropyl-1,3-benzoxazole-5-ol], the IC50 in data set [1] stood at 5.82 µM; in data set [3], 33.8 µM; in data set [6], 4.13 µM; in [7], 9.36 µM. The compound also registered a half-inhibitory concentration (IC50) at 72 h in data set [2] of 5.54 µM. Besides, the “pAkt levels (western blot)” value in data set [4] (48 h treatment) is “significantly decreased pAkt levels”. The “IGF1 Receptor β activated form expression (western blot)” value is given as “not detectable” in [5], “significantly decreased expression” in data set [8] (24 h treatment) and “lack of signal” in data set [8] (48 h treatment). Further, in [9] (24 h treatment), the “inhibition of Akt phosphorylation (western blot)” value is listed as “significant effect”. For the same compound, in [9] (48 h treatment), the “pAkt signal (western blot)” value is “absence of pAkt signal”.

The term IC50 denotes the concentration that gives 50% inhibition. Low readings indicate greater potency, high ones weaker potency.
